The results in this text go back to ChEMBL document CHEMBL1130541, “Investigation into the preferred conformation of gabapentin for interaction with its binding site on the 2 subunit of a calcium channel” (Bioorg Med Chem Lett, 1997).

pIC50: −log10 of the molar value.

Usually inhibition stands for the drop in the measured response relative to a control, in per cent. Broadly, the pIC50 is the IC50 on a negative log10 scale, so that one unit is a factor of ten.

The species named for one assay is Rattus norvegicus. Description: Percent inhibition of binding to alpha2-delta subunit of rat calcium channel at 10 uM.
Assay [1] can be described thus: Binding affinity against alpha2-delta subunit of rat calcium channel.

In the case of `C[C@@H]1C[C@H](C)C[C@](CN)(CC(=O)O)C1`, the inhibition in the assay filed under Rattus norvegicus turned out to be 38%.

Consider `C[C@@H]1C[C@H](C)C[C@@](CN)(CC(=O)O)C1`, for which the pIC50 in assay [1] was 6.84. On to `NCC1(CC(=O)O)CCCCC1` [GABAPENTIN], for which the pIC50 in assay [1] was […]. For the compound `C[C@H]1CC[C@](CN)(CC(=O)O)CC1`, the inhibition in the assay listed under Rattus norvegicus came to 17%. Turning to `C[C@H]1CC[C@@](CN)(CC(=O)O)CC1`, the pIC50 in assay [1] is 6.38.
